Test results reported in publication PMC7567334 (Environmental Health Perspectives, 2020).
Entries after “also recorded” stand apart in the source; their conditions may differ. Where two headings read alike, the source gives them in different places.

How the values were obtained:
[1] = target: T1, GR (Homo sapiens, UniProt P04150); experiment: MDA-kb2 GR reporter assay, antagonist setup (500 nM HC); type: cell-based; parameters: constitutively expressed high levels of functional GR and AR; host or cells: MDA-kb2
T1 sequence (P04150 1-777): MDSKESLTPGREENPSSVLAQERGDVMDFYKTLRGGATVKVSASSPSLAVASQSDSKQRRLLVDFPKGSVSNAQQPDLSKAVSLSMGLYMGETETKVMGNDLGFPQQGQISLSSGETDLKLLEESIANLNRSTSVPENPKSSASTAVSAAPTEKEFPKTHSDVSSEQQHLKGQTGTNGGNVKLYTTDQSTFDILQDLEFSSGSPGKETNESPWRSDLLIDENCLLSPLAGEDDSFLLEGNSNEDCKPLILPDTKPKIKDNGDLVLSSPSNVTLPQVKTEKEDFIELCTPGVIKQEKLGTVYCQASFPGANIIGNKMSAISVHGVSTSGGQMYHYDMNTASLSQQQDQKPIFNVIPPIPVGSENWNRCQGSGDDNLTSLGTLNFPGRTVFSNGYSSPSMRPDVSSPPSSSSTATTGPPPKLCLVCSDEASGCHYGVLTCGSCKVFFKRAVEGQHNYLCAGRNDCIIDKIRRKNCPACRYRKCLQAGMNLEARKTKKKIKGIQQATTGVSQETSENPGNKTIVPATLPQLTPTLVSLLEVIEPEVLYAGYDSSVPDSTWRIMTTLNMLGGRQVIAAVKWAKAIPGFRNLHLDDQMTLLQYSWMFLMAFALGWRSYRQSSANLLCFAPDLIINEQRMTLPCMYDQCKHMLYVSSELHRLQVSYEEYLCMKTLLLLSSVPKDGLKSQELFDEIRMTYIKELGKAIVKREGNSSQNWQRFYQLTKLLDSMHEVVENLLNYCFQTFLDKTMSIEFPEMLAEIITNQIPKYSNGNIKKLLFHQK

[2] = target: T2, firefly luciferase (Photinus pyralis, UniProt P08659); experiment: Luciferase inhibition assay in GH3.TRE-Luc cell lysates; type: biochemical; details: cell lysate, read-out: inhibition of firefly luciferase luminescence signal
T2 construct: Only implied by 'CP' in the vector name, from my own knowledge; expressed in transfected cells; host or cells: GH3.TRE-Luc cells induced with 0.25 nM T3, lysate
T2 sequence (P08659 whole entry): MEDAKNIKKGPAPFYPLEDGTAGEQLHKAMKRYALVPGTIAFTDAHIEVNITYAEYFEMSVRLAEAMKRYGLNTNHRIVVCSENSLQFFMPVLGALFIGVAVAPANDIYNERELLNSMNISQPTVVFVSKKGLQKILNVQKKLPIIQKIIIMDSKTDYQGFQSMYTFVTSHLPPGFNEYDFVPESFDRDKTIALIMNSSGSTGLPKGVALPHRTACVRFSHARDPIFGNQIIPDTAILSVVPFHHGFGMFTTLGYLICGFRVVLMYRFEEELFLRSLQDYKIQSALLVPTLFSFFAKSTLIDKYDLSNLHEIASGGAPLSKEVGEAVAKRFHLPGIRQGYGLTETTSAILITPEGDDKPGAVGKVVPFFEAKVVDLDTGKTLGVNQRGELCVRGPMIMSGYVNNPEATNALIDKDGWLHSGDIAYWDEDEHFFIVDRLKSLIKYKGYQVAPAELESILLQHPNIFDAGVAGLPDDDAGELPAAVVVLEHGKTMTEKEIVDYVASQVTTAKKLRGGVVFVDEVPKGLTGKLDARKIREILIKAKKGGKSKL
Experimental: Serial dilutions for each treatment were prepared in the cell lysate and incubated at room temperature for 30 min.

[3] = test system: AroB transcription; details: 0.25 μM triclocarban added to 1 nM E2; zebrafish embryos; ref Chung et al. 2011; cited from earlier work
[4] = test system: hERα-HeLa-9903 cells; experiment: Cell viability (resazurin) in hERα-HeLa-9903 cells
[5] = test system: fathead minnow (Pimephales promelas); details: exposure to 10 μg/L; ref Ankley et al. 2010; cited from earlier work
[6] = target: T1, GR; experiment: MDA-kb2 GR reporter assay, agonist setup (with FLU); type: cell-based; parameters: constitutively expressed high levels of functional GR and AR; host or cells: MDA-kb2; details: MDA-kb2
[7] = target: T1, GR; experiment: PolarScreen GR Competitor binding affinity assay; parameters: purchased Invitrogen; details: in words; tested up to 10 μM
[8] = test system: Androgen receptor; details: cited from earlier work
[9] = test system: recombinant AR; details: ref Chen et al. 2008; cited from earlier work
[10] = target: T3, human (h)AR (Homo sapiens, UniProt P10275); experiment: AR-EcoScreen hAR transcriptional activation assay, antagonist setup (500 pM DHT); type: cell-based; details: vs 0.1% DMSO with 500 pM DHT
T3 sequence (P10275 1-920): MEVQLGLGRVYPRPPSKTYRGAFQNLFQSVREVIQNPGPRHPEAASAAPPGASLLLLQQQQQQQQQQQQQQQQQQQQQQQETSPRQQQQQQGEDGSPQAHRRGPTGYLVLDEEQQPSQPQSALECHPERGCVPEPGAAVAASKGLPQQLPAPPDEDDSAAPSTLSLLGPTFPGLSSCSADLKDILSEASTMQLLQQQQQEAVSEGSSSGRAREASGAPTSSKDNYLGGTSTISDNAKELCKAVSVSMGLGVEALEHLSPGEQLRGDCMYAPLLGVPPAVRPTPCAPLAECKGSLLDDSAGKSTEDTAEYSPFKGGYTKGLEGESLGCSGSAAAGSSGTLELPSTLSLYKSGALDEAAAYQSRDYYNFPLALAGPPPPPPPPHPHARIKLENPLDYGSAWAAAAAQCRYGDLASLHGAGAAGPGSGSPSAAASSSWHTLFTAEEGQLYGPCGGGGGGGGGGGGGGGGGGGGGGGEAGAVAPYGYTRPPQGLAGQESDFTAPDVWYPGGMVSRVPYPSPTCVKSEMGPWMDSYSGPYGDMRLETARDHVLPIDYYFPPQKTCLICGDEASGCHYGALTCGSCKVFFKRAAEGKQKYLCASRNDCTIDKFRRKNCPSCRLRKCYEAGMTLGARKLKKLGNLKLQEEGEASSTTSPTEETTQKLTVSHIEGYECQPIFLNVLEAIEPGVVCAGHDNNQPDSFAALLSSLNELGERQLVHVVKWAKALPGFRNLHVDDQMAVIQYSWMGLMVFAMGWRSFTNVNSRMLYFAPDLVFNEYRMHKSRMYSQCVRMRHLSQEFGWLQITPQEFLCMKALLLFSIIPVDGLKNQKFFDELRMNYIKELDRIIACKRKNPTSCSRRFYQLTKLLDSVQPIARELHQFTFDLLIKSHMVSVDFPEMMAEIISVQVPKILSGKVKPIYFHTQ

SMILES: O=C(Nc1ccc(Cl)cc1)Nc1ccc(Cl)c(Cl)c1 [Triclocarban, 1-(4-Chlorophenyl)-3-(3,4-dichlorophenyl) urea]
- lower GR RTA than spike-in control ([1]; 5 μM, vs 0.1% DMSO with 500 nM HC): 38.9%
- GR antagonist activity, call ([1]; MDA-kb2): Antagonist
- concentration with GR antagonist activity ([1]; MDA-kb2): 5 µM
- inhibition at 50 µM [2]: 46.7%
- increase in AroB transcription [3]: 18 fold
- highest noncytotoxic concentration ([4]; hERα-HeLa-9903): 5 µM
- highest tested concentration as limited by precipitation and cytotoxicity ([4]; hERα-HeLa-9903, ERα agonist dose-response): 5 µM
- effect in fathead minnow [5]: increased masculinization
- GR agonist activity [6]: no GR agonist activity
- binding affinity assay on isolated GR, result [7]: did not show binding; also recorded: negative
- effect on AR ([8]; HEK-2933Y cells, ref Ahn et al. 2008, Chen et al. 2008): Enhancer of testosterone activity in HEK-2933Y cells ([Ahn et al. 2008]; [Chen et al. 2008])
- effect on AR ([8]; MDA-kb2 cells, ref Christen et al. 2010, Kolšek et al. 2014a, Tarnow et al. 2013): Enhancer of 5α-dihydrotestosterone activity in MDA-kb2 cells ([Christen et al. 2010]; [Kolšek et al. 2014a]; [Tarnow et al. 2013])
- effect on AR ([8]; T47D-ARE cells, ref Ahn et al. 2008): Enhancer of testosterone activity in T47D-ARE cells ([Ahn et al. 2008])
- binding to recombinant AR [9]: Negative for recombinant AR ([Chen et al. 2008])
- higher AR RTA than spike-in control ([10]; 1 μM): 30.7%
- higher AR RTA than spike-in control ([10]; 2.5 μM): 39.4%
